Laboratory results published in patent US20050009894A1 (Aventis Pharma S.A., priority 2001, published 2005).

What follows are molecules tested against T1, human KDR enzyme (Homo sapiens, UniProt P35968) (assay: Phosphorylation of the substrate PLCγ by the enzyme KDR in vitro (flashplate technique)). Settings: Table VII, degrees of activity by IC50 range; read-out: Activity.
T1 construct: The cytoplasmic domain of human KDR enzyme is cloned in the form of a GST fusion; GST; made in house; host or cells: SF21 insect cells (baculovirus, pFastBac)
T1 sequence (P35968 786-1356 limits assumed): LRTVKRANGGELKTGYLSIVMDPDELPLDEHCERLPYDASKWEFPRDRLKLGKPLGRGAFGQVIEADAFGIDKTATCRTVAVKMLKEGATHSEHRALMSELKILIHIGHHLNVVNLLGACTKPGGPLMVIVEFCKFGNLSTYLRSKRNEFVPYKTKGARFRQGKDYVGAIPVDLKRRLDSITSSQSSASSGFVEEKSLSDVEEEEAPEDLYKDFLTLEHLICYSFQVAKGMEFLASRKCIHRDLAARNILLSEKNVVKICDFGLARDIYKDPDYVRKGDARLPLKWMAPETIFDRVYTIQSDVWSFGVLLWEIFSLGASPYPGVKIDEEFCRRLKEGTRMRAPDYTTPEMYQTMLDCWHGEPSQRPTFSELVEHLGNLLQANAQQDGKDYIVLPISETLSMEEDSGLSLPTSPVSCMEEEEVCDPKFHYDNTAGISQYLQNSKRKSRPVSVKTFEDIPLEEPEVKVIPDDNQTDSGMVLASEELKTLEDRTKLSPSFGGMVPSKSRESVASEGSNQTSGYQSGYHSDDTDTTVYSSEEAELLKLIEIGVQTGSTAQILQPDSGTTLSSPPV
Assay type: biochemical
Protocol: The inhibitory effect of the compounds is determined in a test of phosphorylation of a substrate by the enzyme KDR in vitro by the flasplate technique (96-well plate, NEN). The cytoplasmic domain of human KDR enzyme is cloned in the form of a GST fusion into the baculovirus expression vector pFastBac. The protein is expressed in the SF21 cells and purified to about 60% homogeneity.
The kinase activity of KDR is measured in 20 mM MOPS, 10 mM MgCl2, 10 mM MnCl2, 1 mM DTT, 2.5 mM EGTA, 10 mM β-glycerophosphate, pH 7.2 in the presence of 10 mM MgCl2, 100 μM Na3VO4, 1 mM NaF. 10 μl of the compound are added to 70 μl of kinase buffer containing 100 ng of KDR enzyme at 4° C. The reaction is initiated by adding 20 μl of solution containing 2 μg of substrate (fragment SH2-SH3 of PLCγ expressed in the form of a GST fusion protein), 2 μCi γ33P[ATP] and 2 μM cold ATP. After incubating for 1 h at 37° C., the reaction is quenched by adding 1 volume (100 μl) of 200 mM EDTA. The incubation buffer is removed and the wells are washed three times with 300 μl of PBS. The radioactivity is measured in each well using a Top Count NXT instrument (Packard).
Background noise is determined by measuring the radio-activity in wells in quadruplet containing radioactive ATP and the substrate alone.
An activity control is measured in wells in quadruplet containing all the reagents (γ33P-[ATP], KDR and the substrate PLCγ) and in the absence of compound.
The inhibition of the KDR activity with the compound of the invention is expressed as a percentage of inhibition of the control activity determined in the absence of compound.
The compound SU5614 (Calbiochem) (1 μM) is included in each plate as inhibition control.
The IC50 values for the compounds are calculated by plotting the dose-response curves. The IC50 corresponds to the concentration of compound that induces a 50% inhibition of the kinase activity.
With `NS(=O)(=O)c1ccc(CNC(=O)c2ccc3[nH]c(-c4n[nH]c5ccccc45)nc3c2)cc1` [Example 28, 2-(1H-Indazol-3-yl)-1H-benzoimidazole-5-carboxylic acid 4-(aminosulpnonyl)benzylamide] the IC50 was under 0.3 µM.
`CCOCCCNC(=O)c1ccc2[nH]c(-c3n[nH]c4ccccc34)nc2c1` [Example 29, 2-(1H-Indazol-3-yl)-1H-benzoimidazole-5-carboxylic acid (3-ethoxy-propyl)-amide] showed an IC50 of 0.3 to 3 µM.
With `O=C(NCc1ccc(Br)cc1)c1ccc2[nH]c(-c3n[nH]c4ccccc34)nc2c1` [Example 30, 2-(1H-Indazol-3-yl)-1H-benzoimidazole-5-carboxylic acid 4-bromo-benzylamide] the IC50 was under 0.3 µM.
Work on `CS(=O)(=O)c1ccc(CNC(=O)c2ccc3[nH]c(-c4n[nH]c5ccccc45)nc3c2)cc1` [Example 31, 2-(1H-Indazol-3-yl)-1H-benzoimidazole-5-carboxylic acid 4-methanesulfonyl-benzylamide] yielded an IC50 of under 0.3 µM.
With `O=C(NCc1cccc2ccccc12)c1ccc2[nH]c(-c3n[nH]c4ccccc34)nc2c1` [Example 32, 2-(1H-Indazol-3-yl)-1H-benzoimidazole-5-carboxylic acid (naphthalen-1-ylmethyl)-amide] the IC50 was 0.3 to 3 µM.
With `O=C(NCc1ccc(C(F)(F)F)cc1)c1ccc2[nH]c(-c3n[nH]c4ccccc34)nc2c1` [Example 33, 2-(1H-Indazol-3-yl)-1H-benzoimidazole-5-carboxylic acid 4-trifluoromethyl-benzylamide] the IC50 was 0.3 to 3 µM.
For `O=C(NCc1cccs1)c1ccc2[nH]c(-c3n[nH]c4ccccc34)nc2c1` [Example 34, 2-(1H-Indazol-3-yl)-1H-benzoimidazole-5-carboxylic acid (thiophen-2-ylmethyl)-amide], the IC50 was 0.3 to 3 µM.
`CN(C)c1ccc(CNC(=O)c2ccc3[nH]c(-c4n[nH]c5ccccc45)nc3c2)cc1` [Example 35, 2-(1H-Indazol-3-yl)-1H-benzoimidazole-5-carboxylic acid 4-dimethylamino-benzylamide] showed an IC50 of 0.3 to 3 µM.
Work on `CC(C)(C)OC(=O)N1CCC(CNC(=O)c2ccc3[nH]c(-c4n[nH]c5ccccc45)nc3c2)CC1` [Example 36, 4-({[2-(1H-Indazol-3-yl)-1H-benzoimidazole-5-carbonyl]-amino}-methyl)-piperidine-1-carboxylic acid tert-butyl ester] yielded an IC50 of 0.3 to 3 µM.
In the case of `O=C(NCc1ccc([N+](=O)[O-])cc1)c1ccc2[nH]c(-c3n[nH]c4ccccc34)nc2c1` [Example 37, 2-(1H-Indazol-3-yl)-1H-benzoimidazole-5-carboxylic acid 4-nitro-benzylamide], the IC50 is reported as under 0.3 µM.
`O=C(NCc1cccnc1)c1ccc2[nH]c(-c3n[nH]c4ccccc34)nc2c1` [Example 38, 2-(1H-Indazol-3-yl)-1H-benzoimidazole-5-carboxylic acid (pyridin-3-ylmethyl)-amide] gave an IC50 of 0.3 to 3 µM.
Molecule `O=C(NCc1cccc(Br)c1)c1ccc2[nH]c(-c3n[nH]c4ccccc34)nc2c1` [Example 39, 2-(1H-Indazol-3-yl)-1H-benzoimidazole-5-carboxylic acid 3-bromo-benzylamide] has an IC50 of 0.3 to 3 µM.

Same assay, conditions: product tested at 10 μM; read-out: % of inhibition of the phosphorylation of PLCγ by KDR (product tested at a concentration of 10 μM)
Molecule `CCNC(=O)c1ccc2[nH]c(-c3n[nH]c4ccccc34)nc2c1` [Example 3, 2-(1H-Indazol-3-yl)-1H-benzimidazole-5-carboxylic acid N-ethylamide] has an inhibition at 10 µM of 91.8%.
`O=C(Nc1ccccc1)c1ccc2[nH]c(-c3n[nH]c4ccccc34)nc2c1` [Example 5, 2-(1H-Indazol-3-yl)-1H-benzimidazole-5-carboxylic acid N-phenylamide] was tested, and the inhibition at 10 µM was 91.9%.
`Brc1ccc2nc(-c3n[nH]c4ccccc34)[nH]c2c1` [Example 18, 5-Bromo-2-(1H-indazol-3-yl)-3H-benzimidazole] showed an inhibition at 10 µM of 91.2%.
With `Cc1cc2nc(-c3cc(-c4cccs4)n[nH]3)[nH]c2cc1C` [Example 21, 5,6-Dimethyl-2-(5-thiophen-2-yl-2H-pyrazol-3-yl)-1H-benzimidazole] the inhibition at 10 µM was 35%.

Same assay, conditions: read-out: IC50 (μM) on inhibition of the phosphory-lation of PLCγ by KDR
`O=C(NCc1ccccc1)c1ccc2nc(-c3n[nH]c4ccccc34)[nH]c2c1` [Example 1, 2-(1H-Indazol-3-yl)-1H-benzimidazole-5-carboxylic acid benzylamide] showed an IC50 of 0.47 µM.
Molecule `CNC(=O)c1ccc2[nH]c(-c3n[nH]c4ccccc34)nc2c1` [Example 2, 2-(1H-Indazol-3-yl)-1H-benzimidazole-5-carboxylic acid N-methylamide] has an IC50 of 0.45 µM.
With `CC(C)NC(=O)c1ccc2[nH]c(-c3n[nH]c4ccccc34)nc2c1` [Example 4, 2-(1H-Indazol-3-yl)-1H-benzimidazole-5-carboxylic acid N-isopropylamide] the IC50 was 0.45 µM.
Work on `O=C(NCCc1ccccc1)c1ccc2[nH]c(-c3n[nH]c4ccccc34)nc2c1` [Example 6, 2-(1H-Indazol-3-yl)-1H-benzimidazole-5-carboxylic acid N-phenethylamide] yielded an IC50 of 0.33 µM.
`O=C(c1ccc2[nH]c(-c3n[nH]c4ccccc34)nc2c1)N1CCOCC1` [Example 7, 2-(1H-Indazol-3-yl)-1H-benzimidazole-5-carboxylic acid N-morpholinoamide] showed an IC50 of 0.72 µM.
With `CN1CCN(C(=O)c2ccc3[nH]c(-c4n[nH]c5ccccc45)nc3c2)CC1` [Example 8, 2-(1H-Indazol-3-yl)-1H-benzimidazole-5-carboxylic acid N-(N′-methyl-piperazino)amide] the IC50 was 0.67 µM.
`O=C(c1ccc2[nH]c(-c3n[nH]c4ccccc34)nc2c1)N1CCCC1` [Example 9, 2-(1H-Indazol-3-yl)-1H-benzimidazole-5-carboxylic acid N-pyrrolidinoamide] showed an IC50 of 0.35 µM.
`CC(C)CNC(=O)c1ccc2[nH]c(-c3n[nH]c4ccccc34)nc2c1` [Example 10, 2-(1H-Indazol-3-yl)-1H-benzimidazole-5-carboxylic acid N-(isobutyl)amide] was tested, and the IC50 was 0.34 µM.
For `O=C(NCC1CCCCC1)c1ccc2[nH]c(-c3n[nH]c4ccccc34)nc2c1` [Example 11, 2-(1H-Indazol-3-yl)-1H-benzimidazole-5-carboxylic acid N-(cyclohexylmethyl)amide], the IC50 was 0.26 µM.
In the case of `O=C(NCc1ccco1)c1ccc2[nH]c(-c3n[nH]c4ccccc34)nc2c1` [Example 12, 2-(1H-Indazol-3-yl)-1H-benzimidazole-5-carboxylic acid N-(2-furfuryl)amide], the IC50 is reported as 0.16 µM.
For `CN(Cc1ccccc1)C(=O)c1ccc2[nH]c(-c3n[nH]c4ccccc34)nc2c1` [Example 13, 2-(1H-Indazol-3-yl)-1H-benzimidazole-5-carboxylic acid N-benzyl-N-methylamide], the IC50 was 0.61 µM.
In the case of `COC(=O)c1ccc2nc(-c3n[nH]c4ccccc34)[nH]c2c1` [Example 14, Methyl 2-(1H-indazol-3-yl)-3H-benzimidazole-5-carboxylate], the IC50 is reported as 1.2 µM.
Work on `Cc1cc2nc(-c3n[nH]c4ccccc34)[nH]c2cc1C` [Example 15, 5,6-Dimethyl-2-(1H-indazol-3-yl)-1H-benzimidazole] yielded an IC50 of 0.8 µM.
For `COc1ccc2nc(-c3n[nH]c4ccccc34)[nH]c2c1` [Example 16, 5-Methoxy-2-(1H-indazol-3-yl)-1H-benzimidazole], the IC50 was 2 µM.
With `Cc1cc(-c2nc3cc(C)c(C)cc3[nH]2)[nH]n1` [Example 20, 5,6-Dimethyl-2-(5-methyl-2H-pyrazol-3-yl)-1H-benzimidazole] the IC50 was 3.4 µM.
`CCc1cc(-c2nc3cc(C)c(C)cc3[nH]2)[nH]n1` [Example 23, 2-(5-Ethyl-2H-pyrazol-3-yl)-5,6-dimethyl-1H-benzimidazole] showed an IC50 of 2 µM.
